Assays:
[1] = MTT cytotoxicity assay, MDA-MB-231; type: cell-based, human; details: human; CC50 of WI-38 divided by CC50 of MDA-MB-231; read-out: SCI (selective cytotoxicity index)
Excerpt: (§1) The cytotoxicity of the test compounds was studied using the MTT assay against a number of cell lines: CT-26 murine colon carcinoma, 4T1 murine mammary carcinoma, MDA-MB-231 human breast adenocarcinoma, COLO201 human colorectal adenocarcinoma, HepG2 human hepatocellular carcinoma, A549 human non-small-cell lung carcinoma, SK-BR-3 human breast adenocarcinoma, SNU-1 human gastric carcinoma, Jurkat human acute T-lymphoblastic leukemia, and WI-38 human lung fibroblasts (normal cells). Doxorubicin (Dox) was used as a reference drug. Cells were incubated with test compounds for 72 h.
(§2) Cells were seeded in flat-bottomed 96-well plates at 10,000 cells per well (for A549, SNU-1, WI-38, CT-26, MDA-MB-231, 4T1, and HepG2 cells) or 20,000 cells per well (for SK-BR-3, Jurkat, and COLO201 cells) and cultivated in complete culture mediums (for composition of each medium, see the Supplementary Materials, Table S1) in a CO2 incubator at 37 °C. At the first stage of this study, the test compounds dissolved in DMSO were added to the wells with cells at final concentrations from 1 × 10^–4 to 1 × 10^–10 mol/L (A549, SK-BR-3, SNU-1, Jurkat, and WI-38) or 1 × 10^–3 to 1 × 10^–8 mol/L (CT-26, MDA-MB-231, 4T1, COLO201, and HepG2); DMSO concentration in the wells was finally 1%. A complete cultural medium and DMSO were added to the control wells at the same concentration as in the experimental wells; 0.1% Triton X-100 solution (10 µL) was added to the corresponding wells as a non-specific positive control. After adding the test compounds, the cells were incubated for 72 h in an atmosphere containing 5% CO2. After that, the nutrient medium was removed from each well (in the case of SK-BR-3, Jurkat, and COLO201, plates were pre-centrifuged at 1500 rpm for 6 min). A solution of the commercial anticancer agent Doxorubicin (Dox, Sigma-Aldrich, St. Louis, MO, USA) in DMSO was used as a reference drug. Then, 150 µL of a complete medium with the MTT reagent (PanEco, Moscow, Russia) at a concentration of 0.5 mg/mL was added and incubated for 2 h. Formazan crystals were dissolved in DMSO (200 µL) and the absorbance in the wells was measured at 540 nm and a reference wavelength of 650 nm (Sunrise, Tecan, Groding, Austria). Experiments were performed in three parallel runs. Cell viability after incubation in the presence of test compounds was calculated in relation to cell viability in the control wells according to the Formula (1):Cell viability (%) = (Aexp/Ac) × 100,(1) where Aexp is the optical density of solutions in the wells containing test compounds; Ac is the optical density of solutions in control wells without test compounds. For detailed information on cell viability of various cell lines, see the Supplementary Materials, Figures S21–S26.
(§3) At the second stage of this study, in order to more accurately calculate the CC50 (the half maximal inhibitory concentration), the cytotoxic effect of test compounds was evaluated at concentrations close to CC50 found at the first stage. The study of the cytotoxic activity of each substance towards the cells of each line was carried out in triplicate; the mean value was used to calculate CC50. The CC50 values were determined by non-linear regression analysis using Graph-Pad Prism7.

[2] = MTT cytotoxicity assay, WI-38 normal cells; type: cell-based; details: human, WI-38 lung fibroblasts (normal cells); for CC50 at 72 h: WI-38, 72 h incubation, MTT; for viability at 72 h: WI-38, 1 × 10^–4 M, mean ± SD (n = 3), read-out: Cell viability
Excerpt: as §1, §2, §3

[3] = test system: A549 human non-small-cell lung carcinoma; test: MTT cytotoxicity assay, A549; type: cell-based; details: Homo sapiens; for CC50: A549, 72 h, A549, 72 h incubation, MTT; for viability at 100 µM: A549, 1 × 10^–4 M, mean ± SD (n = 3)
Excerpt: as §1, §2, §3

[4] = MTT cytotoxicity assay, A549; type: cell-based, human; details: human, read-out: SCI (selective cytotoxicity index)
Excerpt: as §1, §2, §3

[5] = test system: herpes simplex virus type 1 (HSV-1), including acyclovir-resistant HSV-1 strain; design: method as in doi:10.1002/ejoc.201900727, doi:10.1515/pac-2019-1214, doi:10.1007/s10593-021-02929-z; details: HSV-1 including acyclovir-resistant strain; cited from earlier work
[6] = Solubility in aqueous media; type: physicochemical; details: result in words
[7] = test system: Vero E6 cells; design: method as in doi:10.1007/s10593-021-02929-z; details: cited from earlier work
[8] = CC50 of WI-38 divided by CC50 of A549 (Table 1)

CC1COc2c(ccc(F)c2F)N1C(=O)CCCCCCCNc1ncnc2[nH]cnc12 (stereo not drawn) [Compound 1c]
selectivity ratio at 72 h [1]: 1.2 | CC50 at 72 h ([2]; n = 3): 50 µM | viability at 72 h [2]: 21 ± 3% | CC50 ([3]; n = 3 (Table 1)): 43 µM | viability at 100 µM [3]: 7 ± 1% | selectivity ratio at 72 h [4, 8]: 1.2 | antiviral activity in vitro against HSV-1 [5]: high antiviral activity

CC1COc2c(ccc(F)c2F)N1C(=O)CCCCCCCCCCNc1ncnc2[nH]cnc12 (stereo not drawn) [Compound 1d]
solubility in aqueous media [6]: low solubility in aqueous media | selectivity ratio at 72 h [1]: 0.48 | CC50 at 72 h ([2]; n = 3): 21 µM | CC50 at 72 h ([2]; n = 3 (Table 3)): 21 µM | viability at 72 h [2]: 21 ± 7% | CC50 ([3]; n = 3 (Table 1)): 43 µM | CC50 ([3]; n = 3 (Table 3)): 21 µM | viability at 100 µM [3]: 6 ± 1% | selectivity ratio at 72 h [4, 8]: 0.49 | selectivity ratio at 72 h ([4]; CC50 of WI-38 divided by CC50 of A549 (Table 3)): 1 | concentration which caused the death of 50% Vero E6 cells [7]: less than 30 µM
